Experimental data: patent US8952034B2, “Fused heterocyclic compounds as ion channel modulators” (Gilead Sciences, Inc., priority 2009, dated 2015)

Molecular target: wild-type human cardiac sodium channel, hNav1.5 (Homo sapiens, UniProt Q14524)
Assay: Late INa screening assay (automated whole cell patch clamp, PatchXpress)
Type: cell-based
Settings: compound at 1 μM; HEK293 cells expressing hNav1.5; late INa generated with 10 μM Tefluthrin (or 50 nM ATX II); read-out: LateINa_1 uM (percent block of late INa)
Method in brief: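 Late sodium current through wild-type human hNav1.5 stably expressed in HEK293 cells (no beta subunits) was recorded by automated whole-cell patch clamp on a PatchXpress 7000A at 24-27° C. Late INa was induced with 10 μM Tefluthrin or 50 nM ATX II. Cells were stepped from −120 mV to −20 mV for 250 ms at 0.1 Hz, and percent block was normalized to current in Na-free extracellular solution.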

wild-type human cardiac sodium channel, hNav1.5, sequence (Q14524 whole entry): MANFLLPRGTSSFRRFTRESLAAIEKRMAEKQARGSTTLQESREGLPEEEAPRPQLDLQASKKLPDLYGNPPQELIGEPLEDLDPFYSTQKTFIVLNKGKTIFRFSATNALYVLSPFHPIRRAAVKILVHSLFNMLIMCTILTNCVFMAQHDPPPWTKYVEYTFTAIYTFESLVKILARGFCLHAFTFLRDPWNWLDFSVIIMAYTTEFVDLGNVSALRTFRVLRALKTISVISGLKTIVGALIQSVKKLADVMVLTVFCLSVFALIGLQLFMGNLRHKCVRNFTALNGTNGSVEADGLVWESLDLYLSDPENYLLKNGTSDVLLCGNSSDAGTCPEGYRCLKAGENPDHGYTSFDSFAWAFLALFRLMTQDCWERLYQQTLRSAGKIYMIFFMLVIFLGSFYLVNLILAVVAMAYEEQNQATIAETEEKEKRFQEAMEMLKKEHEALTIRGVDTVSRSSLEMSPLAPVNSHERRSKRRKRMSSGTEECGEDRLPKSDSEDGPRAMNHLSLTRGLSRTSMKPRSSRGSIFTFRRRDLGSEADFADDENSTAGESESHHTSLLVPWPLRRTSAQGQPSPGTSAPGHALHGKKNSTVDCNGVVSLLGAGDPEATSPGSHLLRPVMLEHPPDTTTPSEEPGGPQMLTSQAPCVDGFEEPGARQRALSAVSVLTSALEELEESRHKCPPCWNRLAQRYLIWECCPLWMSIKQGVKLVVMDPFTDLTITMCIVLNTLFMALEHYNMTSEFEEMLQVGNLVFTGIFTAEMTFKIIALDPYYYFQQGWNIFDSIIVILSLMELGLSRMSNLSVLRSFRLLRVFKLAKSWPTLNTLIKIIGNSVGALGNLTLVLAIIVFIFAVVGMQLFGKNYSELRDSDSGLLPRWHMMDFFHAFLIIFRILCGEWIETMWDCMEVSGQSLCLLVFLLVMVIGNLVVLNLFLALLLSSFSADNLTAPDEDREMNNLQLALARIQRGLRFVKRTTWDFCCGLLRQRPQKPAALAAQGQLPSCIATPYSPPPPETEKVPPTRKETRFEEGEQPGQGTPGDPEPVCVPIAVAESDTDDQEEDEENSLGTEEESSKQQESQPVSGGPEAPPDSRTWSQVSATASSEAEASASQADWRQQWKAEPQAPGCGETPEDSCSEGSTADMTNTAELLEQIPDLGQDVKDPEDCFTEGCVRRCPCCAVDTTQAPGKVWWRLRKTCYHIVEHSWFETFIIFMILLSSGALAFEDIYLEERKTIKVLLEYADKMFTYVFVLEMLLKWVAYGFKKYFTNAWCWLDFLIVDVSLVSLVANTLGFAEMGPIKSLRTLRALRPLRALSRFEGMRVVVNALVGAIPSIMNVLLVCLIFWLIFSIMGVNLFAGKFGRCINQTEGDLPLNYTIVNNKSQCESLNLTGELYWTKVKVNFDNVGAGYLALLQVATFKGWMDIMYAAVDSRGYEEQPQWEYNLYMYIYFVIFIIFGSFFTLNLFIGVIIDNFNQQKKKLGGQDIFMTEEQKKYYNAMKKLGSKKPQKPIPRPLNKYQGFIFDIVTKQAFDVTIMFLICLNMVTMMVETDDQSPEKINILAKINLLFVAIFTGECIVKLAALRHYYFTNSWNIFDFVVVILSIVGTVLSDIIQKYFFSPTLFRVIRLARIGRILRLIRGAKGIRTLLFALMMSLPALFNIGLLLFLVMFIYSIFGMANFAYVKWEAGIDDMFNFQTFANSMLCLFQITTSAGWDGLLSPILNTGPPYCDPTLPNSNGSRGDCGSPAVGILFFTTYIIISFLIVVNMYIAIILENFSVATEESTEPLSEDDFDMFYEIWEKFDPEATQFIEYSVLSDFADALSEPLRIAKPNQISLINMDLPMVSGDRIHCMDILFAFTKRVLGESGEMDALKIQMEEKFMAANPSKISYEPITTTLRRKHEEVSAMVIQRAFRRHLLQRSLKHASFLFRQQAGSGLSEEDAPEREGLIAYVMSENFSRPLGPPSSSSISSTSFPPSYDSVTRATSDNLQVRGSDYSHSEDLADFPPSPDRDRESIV

Row | Structure (SMILES) | inhibition at 1 µM [%]
1 | FC(F)(F)Oc1ccc(-c2ccc3nnc(C(F)(F)OCc4cnn(-c5ccccc5)c4)n3c2)cc1 [BHN-287, 3-{difluoro[(1-phenyl-1H-pyrazol-4-yl)methoxy]methyl}-6-[4-(trifluoromethoxy)phenyl][1,2,4]triazolo[4,3-a]pyridine] | 47.1
2 | FC(F)(F)Oc1ccc(-c2ccc3nnc(COCc4ccc(Cl)cc4)n3c2)cc1 [BHN-241, 3-{[(4-chlorobenzyl)oxy]methyl}-6-[4-(trifluoromethoxy)phenyl][1,2,4]triazolo[4,3-a]pyridine] | 82.2
3 | FC(F)(F)Oc1ccc(-c2ccc3nnc(C(F)(F)OCc4ccccc4-n4cncn4)n3c2)cc1 [BHN-311, 3-(difluoro{[2-(1H-1,2,4-triazol-1-yl)benzyl]oxy}methyl)-6-[4-(trifluoromethoxy)phenyl][1,2,4]triazolo[4,3-a]pyridine] | 47.3
4 | Cc1cc(-c2ccc(OC(F)(F)F)cc2)cn2nnnc12 [BHN-268, 8-methyl-6-[4-(trifluoromethoxy)phenyl]tetrazolo[1,5-a]pyridine] | 43.2
5 | CC(C)c1nnc2ccc(-c3ccc(OCC(F)(F)F)nc3)nn12 [BHN-203, 3-(propan-2-yl)-6-[6-(2,2,2-trifluoroethoxy)pyridin-3-yl][1,2,4]triazolo[4,3-b]pyridazine] | 19.3
6 | N#Cc1cccc(COC(F)(F)c2nnc3ccc(-c4ccc(OC(F)(F)F)cc4)cn23)c1 [BHN-261, 3-[(difluoro{6-[4-(trifluoromethoxy)phenyl][1,2,4]triazolo[4,3-a]pyridin-3-yl}methoxy)methyl]benzonitrile] | 56.8

Same assay, conditions: compound at 10 μM; HEK293 cells expressing hNav1.5; late INa generated with 10 μM Tefluthrin (or 50 nM ATX II); read-out: LateINa_10 uM (percent block of late INa)

Row | Structure (SMILES) | inhibition at 10 µM [%]
7 | FC(F)(F)c1ncc2ccc(-c3ccc(Oc4ccccc4)cc3)cn12 [BHN-7, 6-(4-phenoxyphenyl)-3-(trifluoromethyl)imidazo[1,5-a]pyridine] | 55.4
8 | Cc1cc(OC(F)(F)F)ccc1-c1ccc2nnc(-c3ccc(C#N)cc3)n2n1 [BHN-41, 4-{6-[2-methyl-4-(trifluoromethoxy)phenyl][1,2,4]triazolo[4,3-b]pyridazin-3-yl}benzonitrile] | 59.1
9 | Cc1cc(-c2ccc(Oc3ccccc3)cc2)cn2ncnc12 [BHN-349, 8-methyl-6-(4-phenoxyphenyl)[1,2,4]triazolo[1,5-a]pyridine] | 65.1
